These compounds were tested against T1, ABCD2 WT (Homo sapiens, UniProt Q9UBJ2) (assay: D2 correction dose-response assay: ABCD2 WT HiBit protein expression). Conditions: HEK-293/ABCD2 WT cells, 24 hours treatment, HiBit luminescence; class combines EC50 and Mean MaxAct (fold); read-out: ABCD2 WT EC50, Emax.
T1 construct: expressed in transfected cells
T1 sequence (Q9UBJ2 1-740): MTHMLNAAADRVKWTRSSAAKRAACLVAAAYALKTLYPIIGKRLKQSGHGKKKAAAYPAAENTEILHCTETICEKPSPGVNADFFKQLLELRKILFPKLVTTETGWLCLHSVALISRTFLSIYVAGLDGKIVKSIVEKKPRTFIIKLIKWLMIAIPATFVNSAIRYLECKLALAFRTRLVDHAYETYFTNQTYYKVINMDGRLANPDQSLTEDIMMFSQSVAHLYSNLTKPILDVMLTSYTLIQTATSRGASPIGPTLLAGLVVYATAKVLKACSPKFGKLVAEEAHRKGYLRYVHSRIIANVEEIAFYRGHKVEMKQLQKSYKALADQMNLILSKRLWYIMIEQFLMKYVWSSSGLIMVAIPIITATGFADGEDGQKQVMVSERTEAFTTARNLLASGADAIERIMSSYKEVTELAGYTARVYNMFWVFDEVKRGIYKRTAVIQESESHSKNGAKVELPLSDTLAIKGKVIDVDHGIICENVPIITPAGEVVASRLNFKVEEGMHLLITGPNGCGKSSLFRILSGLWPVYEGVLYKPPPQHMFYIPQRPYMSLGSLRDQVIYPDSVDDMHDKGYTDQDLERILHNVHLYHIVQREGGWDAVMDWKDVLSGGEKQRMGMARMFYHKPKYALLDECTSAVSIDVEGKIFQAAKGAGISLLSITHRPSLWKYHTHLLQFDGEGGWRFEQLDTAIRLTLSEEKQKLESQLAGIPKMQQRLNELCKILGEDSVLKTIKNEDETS
Assay type: cell-based
Summary of the method: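 HEK-293 cells stably expressing HiBit-tagged human ABCD2 WT were treated with 11 doses (3-fold dilutions, top final 30 μM, 0.3% DMSO) for 24 h at 37 °C. Expression was measured by HiBit lytic luminescence after 1 h at 25 °C, giving EC50 and Emax.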

| SMILES | EC50 |
| --- | --- |
| Cc1cc(C)c(Oc2nc(N3CCN(C(=O)C4CCC4)CC3)ccc2NS(C)(=O)=O)c(C)c1 [Compound I-24] | 1 to 10 µM |
| Cc1cc(C2CC2)cc(C)c1Oc1nc(-c2cncc(C#N)c2)ccc1NS(C)(=O)=O [Compound I-271] | > 25 µM |
| Cc1cc(C2CC2)nc(C)c1Oc1nc(N2CCN(C(=O)C3CC3)CC2)ccc1NS(C)(=O)=O [Compound I-28] | > 25 µM |
| Cc1cc(C)c(Oc2nc(N3CC4CC3CN4C(=O)C3CC3)ccc2NS(C)(=O)=O)c(C)c1 (single isomer, unassigned) [Compound I-18] | > 25 µM |
| Cc1cc(C)c(Oc2nc(N3CCn4c(cnc4C)C3)ccc2NS(C)(=O)=O)c(C)c1 [Compound I-30] | 1 to 10 µM |
| Cc1cc(C)c(Oc2nc(-c3cncc(C#N)c3)ccc2NS(=O)(=O)C2COC2)c(C)c1 [Compound I-267] | < 1 µM |
| Cc1cc(C2CC2)nc(C)c1Oc1nc(-n2cc(C#N)cn2)ccc1NS(C)(=O)=O [Compound I-256] | 1 to 10 µM |
| Cc1cc(C)c(Oc2nc(-c3cncc(C#N)c3)ccc2S(=N)(=O)C2CC2)c(C)c1 (stereo not shown) [Compound I-245] | < 1 µM |
| Cc1cc(C)c(Oc2nc(N3CCn4c(C)nnc4C3)ccc2NS(C)(=O)=O)c(C)c1 [Compound I-21] | > 25 µM |
| Cc1cc(C)c(Oc2nc(N3CCN(C(=O)C(C)(C)C)CC3)ccc2NS(C)(=O)=O)c(C)c1 [Compound I-34] | > 25 µM |
| Cc1cc(C2CC2)nc(C)c1Oc1nc(-c2cncc(S(C)(=O)=O)c2)ccc1NS(C)(=O)=O [Compound I-263] | 1 to 10 µM |
| Cc1cc(C)c(Oc2nc(-c3cncc(C#N)c3)ccc2NS(=O)(=O)C(C)C)c(C)n1 [Compound I-276] | > 25 µM |
| Cc1cc(C)c(Oc2nc(-c3cncc(C#N)c3)ccc2S(C)(=N)=O)c(C)c1 (stereo not shown) [Compound I-279] | 10 to 25 µM |
| Cc1cc(C2CC2)nc(C)c1Oc1nc(-n2ccc(C#N)n2)ccc1NS(C)(=O)=O [Compound I-255] | 1 to 10 µM |
| Cc1cc(C)c(Oc2nc(N3CC4(CN(C(=O)C5CC5)C4)C3)ccc2NS(C)(=O)=O)c(C)c1 [Compound I-38] | > 25 µM |
| Cc1cc(C)c(Oc2nc(N3CC4CC(C3)N4C(=O)C3CC3)ccc2NS(C)(=O)=O)c(C)c1 [Compound I-22] | 1 to 10 µM |
| Cc1cc(C(F)F)cc(C2CC2)c1Oc1nc(-c2cncc(C#N)c2)ccc1S(=N)(=O)C1CC1 (stereo not shown) [Compound I-319] | 1 to 10 µM |
| Cc1cc(C)c(Oc2nc(-c3cncc(C#N)c3)ccc2NS(=O)(=O)C2CCC2)c(C)c1 [Compound I-253] | 1 to 10 µM |
| CCS(=O)(=O)Nc1ccc(-c2cncc(C#N)c2)nc1Oc1c(C)cc(C)nc1C [Compound I-247] | > 25 µM |
| Cc1cc(C)c(Oc2nc(-c3cncc(C#N)c3)ccc2S(N)(=O)=O)c(C)c1 [Compound I-280] | < 1 µM |
| Cc1cc(C)c(Oc2nc(-c3cccc(C#N)n3)ccc2NS(C)(=O)=O)c(C)n1 [Compound I-241] | 10 to 25 µM |
| Cc1cc(C)c(Oc2nc(N3CCN(S(C)(=O)=O)CC3)ccc2NS(C)(=O)=O)c(C)c1 [Compound I-26] | 1 to 10 µM |

| SMILES | EC50 |
| --- | --- |
| Cc1cc(C)c(Oc2nc(-c3cncc(Cl)c3)ncc2NS(C)(=O)=O)c(C)n1 [Compound I-246] | < 1 µM |
| Cc1cc(C)c(Oc2nc(N3CC4(CCN(C(=O)C5CC5)C4)C3)ccc2NS(C)(=O)=O)c(C)c1 [Compound I-31] | > 25 µM |
| Cc1cc(C)c(Oc2nc(N3C4CC3CN(C(=O)C3CC3)C4)ccc2NS(C)(=O)=O)c(C)c1 [Compound I-35] | > 25 µM |
| Cc1cc(C)c(Oc2nc(-c3ccc(C#N)nc3C)ccc2NS(C)(=O)=O)c(C)n1 [Compound I-269] | 1 to 10 µM |
| Cc1cc(C2CC2)nc(C)c1Oc1nc(-n2cnc(C#N)c2)ccc1NS(C)(=O)=O [Compound I-254] | < 1 µM |
| Cc1cc(C)c(Oc2nc(-c3cncc(C#N)c3)ccc2S(N)(=O)=O)c(C)n1 [Compound I-258] | 10 to 25 µM |
| Cc1cc(C)c(Oc2nc(-c3cn(C)nc3C)ccc2NS(C)(=O)=O)c(C)c1 [Compound I-283] | 1 to 10 µM |
| Cc1cc(C)c(Oc2nc(-c3cncc(C#N)c3)cnc2NS(C)(=O)=O)c(C)c1 [Compound I-275] | < 1 µM |
| Cc1cc(C)c(Oc2nc(-c3cncc(C#N)c3)cnc2NS(C)(=O)=O)c(C)n1 [Compound I-259] | 1 to 10 µM |
| Cc1cc(C)c(Oc2nc(-c3cncc(Cl)c3)ccc2NS(=O)(=O)C2COC2)c(C)c1 [Compound I-41] | < 1 µM |
| Cc1cc(C)c(Oc2nc(N3CCC(C#N)C3)ccc2NS(C)(=O)=O)c(C)c1 (single isomer, unassigned) [Compound I-262] | 1 to 10 µM |
| Cc1cc(C)c(Oc2nc(-c3cncc(C#N)c3)ccc2NS(C)(=O)=O)c(C)c1 [Compound I-39] | < 1 µM |
| Cc1cc(C)c(Oc2nc(-c3cc(C#N)cnc3C)ccc2NS(C)(=O)=O)c(C)n1 [Compound I-270] | 1 to 10 µM |
| Cc1cc(C)c(Oc2nc(N3CC4CC3CN4C(=O)C3CC3)ccc2NS(C)(=O)=O)c(C)c1 (single isomer, unassigned) [Compound I-19] | > 25 µM |
| Cc1cc(C)c(Oc2nc(-n3ccc(C#N)n3)ccc2NS(C)(=O)=O)c(C)c1 [Compound I-257] | 1 to 10 µM |
| Cc1cc(C)c(Oc2nc(N3CCN(C(=O)C4CC4)CC3)ccc2S(N)(=O)=O)c(C)c1 [Compound I-285] | 10 to 25 µM |
| Cc1cc(C2CC2)nc(C)c1Oc1nc(-c2cncc(C#N)c2)ccc1S(C)(=N)=O (stereo not shown) [Compound I-251] | > 25 µM |
| Cc1cc(C)c(Oc2nc(-c3cnc(C#N)c(Cl)c3)ccc2NS(C)(=O)=O)c(C)c1 [Compound I-36] | < 1 µM |
| Cc1cc(C)c(Oc2nc(N3CCC4(CN(C(=O)C5CC5)C4)C3)ccc2NS(C)(=O)=O)c(C)c1 [Compound I-25] | 1 to 10 µM |
| Cc1cc(C(F)F)nc(C2CC2)c1Oc1nc(-c2cncc(C#N)c2)ccc1S(=O)(=O)NC1COC1 [Compound I-321] | 1 to 10 µM |
| Cc1cc(C2CC2)nc(C)c1Oc1nc(-c2cncc(Cl)c2)ccc1NS(C)(=O)=O [Compound I-37] | < 1 µM |
| Cc1cc(C2CC2)nc(C2CC2)c1Oc1nc(-c2cncc(C#N)c2)ccc1S(=N)(=O)C1CC1 (stereo not shown) [Compound I-317] | 1 to 10 µM |

The next lines start with the values.

| EC50 | SMILES |
| --- | --- |
| 1 to 10 µM | CNS(=O)(=O)c1ccc(-c2cncc(C#N)c2)nc1Oc1c(C)cc(C)nc1C [Compound I-265] |
| < 1 µM | Cc1cc(C)c(Oc2nc(-c3cncc(Cl)c3)cnc2NS(C)(=O)=O)c(C)c1 [Compound I-277] |
| 1 to 10 µM | Cc1cc(C)c(Oc2nc(-c3cncc(Cl)c3)cnc2NS(C)(=O)=O)c(C)n1 [Compound I-260] |
| > 25 µM | Cc1cc(C)c(Oc2nc(-c3cncc(C#N)c3)ccc2NS(=O)(=O)C2CC2)c(C)n1 [Compound I-266] |
| 1 to 10 µM | Cc1cc(C)c(Oc2nc(-c3cncc(Cl)c3)ccc2NS(=O)(=O)C2CC2)c(C)n1 [Compound I-238] |
| 1 to 10 µM | Cc1cc(C)c(Oc2nc(-n3cc(C#N)cn3)ccc2NS(C)(=O)=O)c(C)c1 [Compound I-274] |
| < 1 µM | Cc1cc(C)c(Oc2nc(-c3cncc(C#N)c3)c(O)cc2NS(C)(=O)=O)c(C)n1 [Compound I-327] |
| < 1 µM | Cc1cc(C)c(Oc2nc(-n3cnc(C#N)c3)ccc2NS(C)(=O)=O)c(C)c1 [Compound I-273] |
| 10 to 25 µM | Cc1cc(C)c(Oc2nc(-c3cncc(C#N)c3)ccc2NS(=O)(=O)C2CCC2)c(C)n1 [Compound I-243] |
| < 1 µM | Cc1cc(C)c(Oc2nc(-c3ccnc(C#N)c3)ccc2NS(C)(=O)=O)c(C)n1 [Compound I-239] |
| < 1 µM | Cc1cc(C)c(Oc2nc(-c3cncc(Cl)c3)ccc2NS(C)(=O)=O)c(C2CC2)n1 [Compound I-40] |
| 1 to 10 µM | Cc1cc(C)c(Oc2nc(N3CCN(C(=O)OC(C)C)CC3)ccc2NS(C)(=O)=O)c(C)c1 [Compound I-32] |
| > 25 µM | CCCS(=O)(=O)Nc1ccc(-c2cncc(C#N)c2)nc1Oc1c(C)cc(C)nc1C [Compound I-242] |
| 10 to 25 µM | Cc1cc(C)c(Oc2nc(N3CCN(C(=O)C4COC4)CC3)ccc2NS(C)(=O)=O)c(C)c1 [Compound I-23] |
| 10 to 25 µM | Cc1cc(C)c(Oc2nc(N3CCC(C#N)CC3)ccc2NS(C)(=O)=O)c(C)c1 [Compound I-244] |
| > 25 µM | Cc1cc(C2CC2)nc(C)c1Oc1nc(-c2cncc(C#N)c2)ccc1NS(=O)(=O)C1CC1 [Compound I-264] |
| > 25 µM | Cc1cc(C)c(Oc2nc(-c3cncc(Cl)c3)ccc2NS(=O)(=O)C(C)C)c(C)c1 [Compound I-29] |
| > 25 µM | Cc1cc(C)c(Oc2nc(-c3cncc(C#N)c3)ccc2S(=N)(=O)C2CC2)c(C)n1 (stereo not shown) [Compound I-248] |
| > 25 µM | Cc1cnc(Oc2nc(-c3cncc(C#N)c3)ccc2NS(C)(=O)=O)c(C)c1 [Compound I-250] |
| > 25 µM | Cc1cc(C)c(Oc2nc(-c3cc(C#N)c[nH]c3=O)ccc2NS(C)(=O)=O)c(C)n1 [Compound I-326] |

From patent US20250228835A1, “PYRIDINYLOXYPYRIDINES AND RELATED COMPOUNDS AND THEIR USE IN TREATING MEDICAL CONDITIONS” (Rectify Pharmaceuticals, Inc., priority 2024, published 2025)
